Laboratory results from PubChem BioAssay AID330 (DTP/NCI, 2004).
Several values for one entry are separate records, joined by “and”; a condition that tells them apart may be missing. Identical values can stand only once. Inconclusive results and toxic doses are left out. How the source made its calls: active means survival T/C of 150% or more; inactive means T/C below 125% in these data.

Test system: P388 leukemia ip, CD2F1 mice, survival T/C
Assay: NCI In Vivo Anticancer Drug Screen. Data for tumor model P388 Leukemia (intraperitoneal) in CD2F1 (CDF1) mice
Details: endpoint: median survival time, higher = longer survival
Outline: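 Mice carrying the transplanted tumor received test compound or vehicle. Survival was recorded in each group, and the value is the treated-group measurement divided by that of the vehicle-treated control group.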

[1] = dose: 50.0 mg/kg/injection, schedule: Q01DX005 (ip), vehicle: saline with Tween-80
[2] = dose: 100.0 mg/kg/injection, schedule: Q01DX001 (ip), vehicle: Klucel (hydroxypropylcellulose) (HPC)
[3] = dose: 100.0 mg/kg/injection, schedule: Q01DX005 (ip), vehicle: saline with Tween-80
[4] = dose: 200.0 mg/kg/injection, schedule: Q01DX001 (ip), vehicle: Klucel (hydroxypropylcellulose) (HPC)
[5] = dose: 200.0 mg/kg/injection, schedule: Q01DX005 (ip), vehicle: saline with Tween-80
[6] = dose: 400.0 mg/kg/injection, schedule: Q01DX001 (ip), vehicle: Klucel (hydroxypropylcellulose) (HPC)
[7] = dose: 100.0 mg/kg/injection, schedule: Q01DX009 (ip), vehicle: saline with Tween-80

Measured: T/C

COc1ccc2cc1-c1cc(ccc1O)CCC(O)CC1CCCC(CC(O)CC2)N1 (centres undefined)
inactive: dose: 15.0 mg/kg/injection, schedule: Q01DX009 (ip), vehicle: Klucel (hydroxypropylcellulose) (HPC) 100 % of control | dose: 30.0 mg/kg/injection, schedule: Q01DX009 (ip), vehicle: Klucel (hydroxypropylcellulose) (HPC) 107 % of control

COc1cc2c(OC)c(c1)CCCC1=CC(=O)C=C(CCC2)C1=O
inactive: [1] 94 % of control | [2] 92 % of control | [3] 103 % of control | [4] 100 % of control | [5] 100 % of control | [6] 90 % of control

CN(C)CCCNC(=O)c1n[nH]c(=S)[nH]c1=O
inactive: [1] 101 % of control | [3] 100 % of control | [5] 95 % of control

CCOC(=O)N/N=C/c1ccc(N(C)CCC#N)cc1
inactive: dose: 6.25 mg/kg/injection, schedule: Q01DX009 (ip), vehicle: Klucel (hydroxypropylcellulose) (HPC) 90 % of control | dose: 12.5 mg/kg/injection, schedule: Q01DX009 (ip), vehicle: Klucel (hydroxypropylcellulose) (HPC) 100 % of control | dose: 25.0 mg/kg/injection, schedule: Q01DX009 (ip), vehicle: Klucel (hydroxypropylcellulose) (HPC) 97 % of control | dose: 50.0 mg/kg/injection, schedule: Q01DX009 (ip), vehicle: Klucel (hydroxypropylcellulose) (HPC) 88 % of control and 89 % of control | dose: 200.0 mg/kg/injection, schedule: Q01DX009 (ip), vehicle: Klucel (hydroxypropylcellulose) (HPC) 90 % of control

CN(C)CC[Si](C)(C)N(C)C
inactive: dose: 60.0 mg/kg/injection, schedule: Q01DX005 (ip), vehicle: saline 107 % of control | dose: 120.0 mg/kg/injection, schedule: Q01DX005 (ip), vehicle: saline 102 % of control

CN=C(NC)c1ccc(NC(=O)c2cc(Cl)cc(C(=O)Nc3ccc(C(=NC)NC)cc3)c2)cc1
inactive: dose: 6.25 mg/kg/injection, schedule: Q01DX005 (ip), vehicle: saline 98 % of control | dose: 12.5 mg/kg/injection, schedule: Q01DX005 (ip), vehicle: saline 113 % of control | dose: 25.0 mg/kg/injection, schedule: Q01DX005 (ip), vehicle: saline 118 % of control

CCCCCCCCCCCCCCCCN(C)C(C)c1ccccc1 (centres undefined)
inactive: dose: 100.0 mg/kg/injection, schedule: Q04DX002 (ip), vehicle: saline with Tween-80 103 % of control | dose: 200.0 mg/kg/injection, schedule: Q04DX002 (ip), vehicle: saline with Tween-80 101 % of control | dose: 400.0 mg/kg/injection, schedule: Q04DX002 (ip), vehicle: saline with Tween-80 104 % of control

C=CCNCC(O)C(F)(F)C(F)(F)C(F)(F)C(F)(F)C(F)(F)C(F)(F)F (centres undefined)
inactive: dose: 60.0 mg/kg/injection, schedule: Q01DX005 (ip), vehicle: saline with Tween-80 101 % of control | dose: 120.0 mg/kg/injection, schedule: Q01DX005 (ip), vehicle: saline with Tween-80 101 % of control | dose: 240.0 mg/kg/injection, schedule: Q01DX005 (ip), vehicle: saline with Tween-80 109 % of control

CCOC(=O)C(CC(C)/C=N\Nc1ccccc1)(NC(C)=O)C(=O)OCC (centres undefined)
inactive: [2] 95 % of control | [4] 93 % of control | [6] 99 % of control

O=[N+]([O-])c1ccccc1CSc1ncnc2nc[nH]c12
inactive: dose: 50.0 mg/kg/injection, schedule: Q04DX003 (ip), vehicle: saline with Tween-80 95 % of control | [7] 90 % of control | dose: 100.0 mg/kg/injection, schedule: Q04DX003 (ip), vehicle: saline with Tween-80 109 % of control | dose: 200.0 mg/kg/injection, schedule: Q01DX009 (ip), vehicle: saline with Tween-80 100 % of control | dose: 200.0 mg/kg/injection, schedule: Q04DX003 (ip), vehicle: saline with Tween-80 104 % of control | dose: 400.0 mg/kg/injection, schedule: Q01DX009 (ip), vehicle: saline with Tween-80 118 % of control

O[C@H]1CCN2CO[C@@H](c3ccccc3)C[C@H]2C1
inactive: dose: 12.5 mg/kg/injection, schedule: Q01DX005 (ip), vehicle: Klucel (hydroxypropylcellulose) (HPC) 102 % of control | dose: 25.0 mg/kg/injection, schedule: Q01DX005 (ip), vehicle: Klucel (hydroxypropylcellulose) (HPC) 103 % of control | dose: 50.0 mg/kg/injection, schedule: Q01DX005 (ip), vehicle: Klucel (hydroxypropylcellulose) (HPC) 102 % of control

CCOC(=O)Nc1cc2c(c(N)n1)N=C(c1ccc(C)c(C)c1)CN2
inactive: dose: 3.12 mg/kg/injection, schedule: Q01DX005 (ip), vehicle: saline with Tween-80 122 % of control | dose: 12.5 mg/kg/injection, schedule: Q01DX005 (ip), vehicle: saline with Tween-80 88 % of control

C[N+]1(C)CCC(=O)CC1
inactive: dose: 25.0 mg/kg/injection, schedule: Q01DX009 (ip), vehicle: saline with Tween-80 109 % of control | dose: 50.0 mg/kg/injection, schedule: Q01DX009 (ip), vehicle: saline with Tween-80 100 % of control | [7] 104 % of control
